Experimental data taken from patent publication US7569526B2, “Anti-oxidants in soluble oil base for metal working fluids” (Crompton Corporation, priority 2003, dated 2009).
“And” between values parts separate entries of the source, which are not always exact repeats. Equal entries are not always repeated. Values belong to the molecule of their own block, whether it stands above or below them.

Assays:
[1] = Modified ASTM D3946 bottle test, sediment and pH (Examples 25-34); format: physicochemical; settings: 25° C.; filtered at end of test
Experimental: (§1) A modified ASTM D3946 method was run according to the following procedure:
(§2) 1. A 1-quart straight side jar was filled with 500 mL of emulsion. (Note: the straight sides of the jar allow culture plates to be immersed in the emulsion in situ. No steel chips were added.)
(§3) 2. While immersed in a 25° C. water bath, the jars were sparged with air using a disposable pipette at a flow rate of approximately 500 mL/min. (Note: this may need to be adjusted depending on the air supply and the amount of foaming observed).
(§4) 3. The pH was measured using standard pH paper or pH meter and bacteria/fungus counts were measured at one and two week intervals using culture plates (SaniCheck BF culture plates from Biosan Laboratories, Inc. were use in this study, but there are many suppliers available). Although the manufacturers protocol called for incubation between 24 and 36 hours, the bacteria counts were measured after 24, 30, and 48-hour incubations at 28° C. The bacterial onset was measured as the number of weeks necessary to observe at least a 10^3 bacteria count/mL on the culture plate (threshold value of this type of plate). Optionally, the average bacterial count can be calculated over the length of the test period.
4. At the end of the test, the solutions were filtered through medium filter paper (Whatman #2) and the amount of sediment recovered was weighed.
(§5) 5. Unless noted above, the other test details are identical to ASTM D3946.
In this case, after 22 weeks the pH broke and dropped from 9.0 to 7.0. In all other samples, the pH was measured between 8.5 and 9.0, without significant change over the test period.

[2] = test system: bacteria; assay: Modified ASTM D3946 bottle test, bacteria count and onset (Examples 25-34); format: cell-based; settings: 30 hours of incubation
Experimental: as §1, §2, §3, §4, §5
The biological activity was evaluated using a Sanicheck BF Conversion Chart. […]

[3] = RBOT, standard ASTM D2272 (150 C.), bomb life; format: physicochemical
Source text: (§6) The antioxidants used in this study were received from internal and external commercial sources without alteration. The sample of butylated DPA was from a preparation of Naugalube 640 in which the sample was enriched in butylated DPA.
The ASTM D2272 method was run according to the standard procedure using a 10/90 (oil/water) emulsion as a test sample.

[4] = TOST, standard ASTM D943 (95° C.), acid number; format: physicochemical; settings: 0.5% Triadine-3 in Hyprene H100; two separate runs; baseline
Source text: as §6
Combining the results of Examples 11-24 with those of Examples 1-10, the synergies involved in the oxidation testing used can be seen. […] Hyprene H100 is a 100 SUS naphthenic oil. Although there is a large variation in the baseline, the general antioxidant chemistry trends (phenolic vs. aminic) were consistent.

[5] = Modified ASTM D2272 (150 C.), constant time; format: physicochemical; settings: after oxidation
Experimental: 1. Charge the vessel with 50 grams of the emulsion sample provided.
3. Unless noted above, the other test details are identical to ASTM D2272.
With the success of the 95° C. modified ASTM, thermal breakdown for the metalworking fluids at even higher temperature was tested. The test chosen was a modified ASTM D2272 (RBOT) which is run at 150° C. in a sealed bomb, which should provide sufficient stress to provide significant oxidative breakdown of the metalworking fluid. The test was modified so that after the inhibited sample had reduced pressure by 175 psi, all of the oxidations were stopped so that the time of the oxidation would be a constant (typically the test is run to a constant pressure drop value and the time is allowed to vary). […] Additionally, the pH of all samples dropped from the initial 9.0 to 3.0, with the exception of the sample of Naugalube 640, which dropped to 7.0.

[6] = Modified ASTM D943 oxidation (95 C.), constant time; format: physicochemical; settings: aging time 312 hrs
Experimental: 1. Fill the oxidation test tube with 300 ml of the emulsion sample provided.
2. When the first sample containing no antioxidant or biocide reaches a TAN (total acid number) of 2.0 mg/g KOH, stop all of the oxidations at that same time and measure the TAN. During the course of the testing it may be necessary to add a small amount of defoamer (1 drop of Foam Ban MS-575 from Ultra Additives) to prevent excessive foaming and loss of sample out of the top of the test apparatus. 3. Unless noted above the other test details are identical to ASTM D943
Accordingly, additional thermal stress was applied to accentuate differences in antioxidant performance. The test chosen to do this was a modified ASTM D943 run at 95° C., which it was expected would provide some oxidative breakdown of the metalworking fluid. The test was modified so that after the uninhibited sample had reached a TAN value of 2 mg KOH/g all of the oxidations were stopped so that the time of the oxidation would be a constant (typically the test is run to a constant TAN value and the time is allowed to vary).

Molecule: CC(C)(C)c1cc(CCC(=O)OCCSCCOC(=O)CCc2cc(C(C)(C)C)c(O)c(C(C)(C)C)c2)cc(C(C)(C)C)c1O [AX 15, Thiodiethylene-bis(3,5-di-t-butyl-4-hydroxyhydrocinnamate)]
Sediment [1]: reduced the sediment

Molecule: Cc1cc(C(C)(C)C)c(O)c(C(C)(C)C)c1 [BHT, 2,6-di-t-butyl hydroxytoluene]
synergy of antioxidant and biocide on onset time [2]: weakest
Sediment [1]: antagonistically increased the sediment in combination with biocide

Molecule: butylated octylated diphenylamine [Naugalube 640]
synergy of antioxidant and biocide on onset time [2]: strongest
Bomb Life (min) ([3]; 150 C., Table 1 blends): terminated before a break point was ever observed
Sediment [1]: reduced the sediment
Cream (%) [5]: < 1.0%
pH ([5]; initial 9.0): 7.0

Molecule: mono-, di-, and tri-, nonylated diphenylamine [Naugalube 438L]
Cream (%) [6]: no significant cream

The remaining lines, values ahead:

Bomb Life ([3]; 0.5% Triadine-3 in Hyprene H100, two separate runs, baseline): 35 min and 37 min
Oxidation Lifetime [4]: 492 h and 836 h
Molecule: OCCN1CN(CCO)CN(CCO)C1 [Triadine 3, 1,3,5-tris(hydroxyethyl)-s-triazine]

Sediment [1]: reduced the sediment
Molecule: butylated octylated diphenylamine [butylated DPA]

Cream (%) [6]: no significant cream
Molecule: octylated phenyl-α-naphthylamine [Naugalube APAN]
